Measurements reported in ChEMBL document CHEMBL2321817, “Detecting allosteric sites of HIV-1 reverse transcriptase by X-ray crystallographic fragment screening” (J Med Chem, 2013).
Values belong to the compound of their own block, whether it stands above or below them. Calls of active or inactive are those of the source. The rule behind the calls is not given here.

Key:
[1] = biological target: Human immunodeficiency virus type 1 reverse transcriptase (Human immunodeficiency virus 1) (UniProt Q72547); assay: Inhibition of wild type HIV-1 reverse transcriptase p66/p51 399 site after 30 mins by fluorescence assay
[2] = biological target: T1, Human immunodeficiency virus type 1 reverse transcriptase (Human immunodeficiency virus 1, UniProt Q72547); assay: Inhibition of wild type HIV-1 reverse transcriptase knuckles site after 30 mins by fluorescence assay
[3] = biological target: T1, Human immunodeficiency virus type 1 reverse transcriptase; assay: Inhibition of wild type HIV-1 reverse transcriptase 507 site incubated after 30 mins by fluorescence assay
[4] = biological target: Human immunodeficiency virus type 1 reverse transcriptase (Human immunodeficiency virus 1) (UniProt Q72547); assay: Inhibition of wild type HIV-1 reverse transcriptase knuckles site at 1 mM after 30 mins by fluorescence assay
[5] = biological target: T1, Human immunodeficiency virus type 1 reverse transcriptase; assay: Inhibition of wild type HIV-1 reverse transcriptase p66/p51 NNRTI adjacent binding site after 30 mins by fluorescence assay
[6] = biological target: Human immunodeficiency virus type 1 reverse transcriptase (Human immunodeficiency virus 1) (UniProt Q72547); assay: Inhibition of wild type HIV-1 reverse transcriptase 428 site at 1 mM after 30 mins by fluorescence assay relative to control
[7] = biological target: Human immunodeficiency virus type 1 reverse transcriptase (Human immunodeficiency virus 1) (UniProt Q72547); assay: Inhibition of wild type HIV-1 reverse transcriptase RNase H primer grip adjacent site after 30 mins by fluorescence assay
[8] = biological target: T1, Human immunodeficiency virus type 1 reverse transcriptase; assay: Inhibition of wild type HIV-1 reverse transcriptase incoming nucleotide binding site after 30 mins by fluorescence assay

inhibition [1]: inactive
SMILES: Cc1c(CO)cnn1-c1ccc(F)cc1

SMILES: Oc1ccc(OC(F)(F)F)cc1
IC50 [2]: 600 µM

SMILES: CN(CC(=O)N1CCCc2ccccc21)Cc1nc(=O)c2ccccc2[nH]1
IC50 [3]: 150 µM

inhibition [4]: inactive
SMILES: NCc1ccc(OC(F)(F)F)cc1

SMILES: CCOC(=O)c1cnn2ccccc12
IC50 [5]: 350 µM

SMILES: NCC(=O)Nc1ccc2[nH]c(=O)[nH]c2c1
inhibition [6]: 30%

inhibition [7]: inactive
SMILES: Cn1ncc(C(=O)O)c1-c1ccccc1

SMILES: CN1CCN(c2ccc(C(=O)O)cc2)CC1
IC50 [8]: 200 µM
